The target in one assay is T1, calcium channel (Cavia porcellus, UniProt A0A286X7I0).
T1 construct: membrane preparations of guinea pig skeletal muscle; from tissue; host or cells: guinea pig skeletal muscle, membrane preparation
Nature of the assay: Bond to the calcium channel: displacement of the specific (S)-^3H-devapamil bond in membrane preparations of guinea pig skeletal muscle. It is filed as binding. Particulars: guinea pig skeletal muscle membranes; 1 nM (S)-^3H-devapamil; 60 minutes, room temperature; 10^-10 to 10^-6 M test substance. The protocol: (a) Bond to the calcium channel Displacement of the specific (S)-^3 H-devapamil bond in membrane preparations of guinea pig skeletal muscle
(§1) Membrane homogenate was incubated for 60 minutes at room temperature with increasing concentrations (from 10^-10 to 10^-6 M) of test substance and a fixed concentration of 1 nM of radioligand ((S)-^3 H-devapamil or ^3 H-ketanserine). The bound and the free radioligand were separated by filtration over a glass fiber filter, and the amount of radioligand retained on the filter was determined by liquid scintillation measurement. 2 tests with 3 batches were carried out.
(§2) The competition constants (Ki values in nM) were calculated by nonlinear regression analysis on an IBM computer using the program Ligand from Munson and Rodbard (Analytical Biochemistry 107 (1980), 220).

The target of a further assay is T2, serotonin-S2-receptor (Rattus norvegicus, UniProt P14842).
T2 construct: membrane preparations of cerebral cortex of the rat; from tissue; host or cells: rat cerebral cortex, membrane preparation
T2 sequence (P14842 whole entry): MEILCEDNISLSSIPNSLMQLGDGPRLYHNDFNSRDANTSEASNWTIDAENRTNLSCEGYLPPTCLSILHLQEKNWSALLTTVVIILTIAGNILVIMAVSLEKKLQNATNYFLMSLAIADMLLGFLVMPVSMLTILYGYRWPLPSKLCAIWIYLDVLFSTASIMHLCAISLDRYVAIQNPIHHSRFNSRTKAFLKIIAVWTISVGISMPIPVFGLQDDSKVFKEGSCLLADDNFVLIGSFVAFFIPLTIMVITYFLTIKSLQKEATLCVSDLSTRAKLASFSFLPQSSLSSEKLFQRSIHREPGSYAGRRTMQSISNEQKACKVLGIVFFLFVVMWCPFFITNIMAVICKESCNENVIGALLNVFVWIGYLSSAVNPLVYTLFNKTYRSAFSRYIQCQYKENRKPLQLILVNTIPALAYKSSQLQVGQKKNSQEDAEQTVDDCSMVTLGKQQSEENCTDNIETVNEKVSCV
Nature of the assay: Bond to the serotonin-S2-receptor: displacement of the specific ^3H-ketanserine bond in membrane preparations of cerebral cortex of the rat. It is filed as binding. Particulars: rat cerebral cortex membranes; 1 nM ^3H-ketanserine; 60 minutes, room temperature; 10^-10 to 10^-6 M test substance. The protocol: (b) Bond to the serotonin-S2 -receptor
Displacement of the specific ^3 H-ketanserine bond in membrane preparations of cerebral cortex of the rat
as §1, §2

Counter-ions that a name gives are not always drawn.

T1 sequence (A0A286X7I0 1-1867): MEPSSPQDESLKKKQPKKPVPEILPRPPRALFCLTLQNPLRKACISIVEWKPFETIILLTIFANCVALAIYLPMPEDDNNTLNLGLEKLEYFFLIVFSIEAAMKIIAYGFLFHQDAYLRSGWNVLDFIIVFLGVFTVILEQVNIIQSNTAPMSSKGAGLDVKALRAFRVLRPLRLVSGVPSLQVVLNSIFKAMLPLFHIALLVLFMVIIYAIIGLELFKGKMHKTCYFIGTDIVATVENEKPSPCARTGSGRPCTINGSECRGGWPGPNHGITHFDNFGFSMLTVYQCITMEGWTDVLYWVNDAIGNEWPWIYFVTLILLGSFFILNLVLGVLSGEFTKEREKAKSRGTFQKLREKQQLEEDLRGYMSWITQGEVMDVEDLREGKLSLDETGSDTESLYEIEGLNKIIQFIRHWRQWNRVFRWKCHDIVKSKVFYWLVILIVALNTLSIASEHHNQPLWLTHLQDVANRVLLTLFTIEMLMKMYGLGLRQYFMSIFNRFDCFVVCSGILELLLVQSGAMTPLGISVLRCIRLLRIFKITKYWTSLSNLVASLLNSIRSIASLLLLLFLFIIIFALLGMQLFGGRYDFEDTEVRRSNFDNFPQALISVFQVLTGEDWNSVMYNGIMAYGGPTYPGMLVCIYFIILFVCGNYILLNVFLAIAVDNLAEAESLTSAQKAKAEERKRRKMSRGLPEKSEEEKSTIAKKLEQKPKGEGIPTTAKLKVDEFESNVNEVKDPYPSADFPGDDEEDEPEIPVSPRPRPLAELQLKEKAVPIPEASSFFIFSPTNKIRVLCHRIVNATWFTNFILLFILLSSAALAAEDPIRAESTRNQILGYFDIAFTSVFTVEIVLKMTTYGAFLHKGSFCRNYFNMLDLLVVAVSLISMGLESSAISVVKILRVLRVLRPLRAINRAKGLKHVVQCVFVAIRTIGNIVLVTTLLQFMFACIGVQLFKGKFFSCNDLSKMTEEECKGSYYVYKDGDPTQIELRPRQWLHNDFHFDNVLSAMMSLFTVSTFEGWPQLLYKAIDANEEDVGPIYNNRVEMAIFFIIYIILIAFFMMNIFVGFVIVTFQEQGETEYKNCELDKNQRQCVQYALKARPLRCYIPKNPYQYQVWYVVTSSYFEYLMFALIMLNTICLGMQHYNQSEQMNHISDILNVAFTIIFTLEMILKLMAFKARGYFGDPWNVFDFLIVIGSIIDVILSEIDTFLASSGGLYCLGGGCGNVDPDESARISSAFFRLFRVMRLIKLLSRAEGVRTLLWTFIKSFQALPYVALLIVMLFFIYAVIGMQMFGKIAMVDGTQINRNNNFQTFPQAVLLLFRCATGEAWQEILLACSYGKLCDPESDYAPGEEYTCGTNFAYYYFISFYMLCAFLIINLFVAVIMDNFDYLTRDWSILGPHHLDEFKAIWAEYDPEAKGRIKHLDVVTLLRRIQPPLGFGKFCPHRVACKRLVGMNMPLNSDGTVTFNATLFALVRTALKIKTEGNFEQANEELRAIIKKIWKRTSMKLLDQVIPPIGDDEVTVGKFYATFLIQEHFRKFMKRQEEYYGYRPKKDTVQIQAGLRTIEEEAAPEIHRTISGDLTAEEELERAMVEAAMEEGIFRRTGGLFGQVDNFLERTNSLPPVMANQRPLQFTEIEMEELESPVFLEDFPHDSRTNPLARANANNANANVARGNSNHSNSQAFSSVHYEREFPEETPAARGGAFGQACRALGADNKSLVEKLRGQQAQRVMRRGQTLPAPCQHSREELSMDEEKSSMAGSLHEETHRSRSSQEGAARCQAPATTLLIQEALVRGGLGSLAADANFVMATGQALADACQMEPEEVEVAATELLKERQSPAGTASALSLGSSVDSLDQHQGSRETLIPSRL

Consider `COc1cc([C@](C#N)(CCCN(C)CCC2CCCCC2)C(C)C)cc(OC)c1OC` [Example 13, (S)-5-[N-methyl-N-(2-cyclohexyl)-ethyl]-amino-2-(3,4,5-trimethoxyphenyl)-2-isopropylvaleronitrile hydrochloride], for which the Ki (commonly the dissociation constant of the complex between target and ligand, obtained from inhibition or displacement) on calcium channel worked out at 3.4 nM; at serotonin-S2-receptor, 3.3 nM.
In the same order, the values of `COc1cccc(C(C#N)(CCCN(C)CCC2CCCCC2)C(C)C)c1` (stereo not drawn) [Example 1, 5-[N-methyl-N-(2-cyclohexyl)-ethyl]-amino-2-(3-methoxyphenyl)-2-isopropylvaleronitrile] are 16.2 nM and 5 nM.
With `CCCCCCCCCCN(C)CCCC(C#N)(c1cc(OC)c(OC)c(OC)c1)C(C)C` (stereo not drawn) [Example 2, 5-[N-methyl-N-(n-decyl)]-amino-2-(3,4,5-trimethoxyphenyl)-2-isopropylvaleronitrile], the results for the inhibition constant Ki on calcium channel and on serotonin-S2-receptor were 19.1 nM and 21 nM, respectively.
In the same order, the values of `COc1cc(C(C#N)(CCCN(C)CCC2CCCCC2)C(C)C)cc(OC)c1OC` (stereo not drawn) [Example 11, 5-[N-methyl-N-(2-cyclohexyl)-ethyl]-amino-2-(3,4,5-trimethoxyphenyl)-2-isopropylvaleronitrile] are 5.8 nM and 10.7 nM.
Take `CCCCCCN(C)CCC[C@@](C#N)(c1cc(OC)c(OC)c(OC)c1)C(C)C` [Example 24, (S)-5-[N-methyl-N-(n-hexyl)]-amino-2-(3,4,5-trimethoxyphenyl)-2-isopropylvaleronitrile hydrochloride]: the inhibition constant (Ki) was found to be 8.6 nM at calcium channel and 21.1 nM at serotonin-S2-receptor.
As for `COc1ccc(CCN(C)CCCC(C#N)(c2ccc(OC)c(OC)c2)C(C)C)cc1OC` (stereo not drawn) [Verapamil, verapamil, reference compound], the Ki at serotonin-S2-receptor was 177 nM.
With `CCCCCCN(C)CCCC(C#N)(c1cc(OC)c(OC)c(OC)c1)C(C)C` (stereo not drawn) [Example 23, 5-[N-methyl-N-(n-hexyl)]-amino-2-(3,4,5-trimethoxyphenyl)-2-isopropylvaleronitrile hydrochloride], the figures for the Ki on calcium channel and at serotonin-S2-receptor were 11.6 nM and 48.4 nM, respectively.
For `CCCCCCCCN(C)CCC[C@@](C#N)(c1cc(OC)c(OC)c(OC)c1)C(C)C` [Example 6, (S)-5-[N-methyl-N-(n-octyl)]-amino-2-(3,4,5-trimethoxyphenyl)-2-isopropylvaleronitrile] the same measures were 2.9 nM and 11.2 nM.
For `CC(C)C(C#N)(CCCN(C)CCC1=CCCCC1)c1ccccc1` (stereo not drawn) [Example 18, 5-(N-methyl-N-[2-(cyclohexen-1-yl)ethyl]}-amino-2-phenyl-2-isopropylvaleronitrile] the same measures were 36.7 nM and 4 nM.
For the molecule `COc1cc(OC)cc(C(C#N)(CCCN(C)CCC2CCCCC2)C(C)C)c1` (stereo not drawn) [Example 10, 5-[N-methyl-N-(2-cyclohexyl)-ethyl]-amino-2-(3,5-dimethoxyphenyl)-2-isopropylvaleronitrile], the inhibition constant Ki on calcium channel is 9.2 nM; on serotonin-S2-receptor, 2.8 nM.
In the same order, the values of `COc1ccc(C(C#N)(CCCN(C)CCC2CCCCC2)C(C)C)c([N+](=O)[O-])c1OC` (stereo not drawn) [Example 16, 5-[N-methyl-N-(2-cyclohexyl)ethyl]-amino-2-(2-nitro-3,4-dimethoxyphenyl)-2-isopropylvaleronitrile] are 34.2 nM and 3.6 nM.
`CCOc1cc(OCC)cc(C(C#N)(CCCN(C)CCC2CCCCC2)C(C)C)c1` (stereo not drawn) [Example 5, 5-[N-methyl-N-(2-cyclohexyl)-ethyl]-amino-2-(3,5-diethoxyphenyl)-2-isopropylvaleronitrile]: the inhibitory constant (Ki) at calcium channel turned out to be 11.9 nM; on serotonin-S2-receptor it was 20 nM.
Take `CCCCC=CCCN(C)CCCC(C#N)(c1cc(OC)c(OC)c(OC)c1)C(C)C` (stereo not drawn) [Example 15, 5-[N-methyl-N-(n-octen-3-yl)]-amino-2-(3,4,5-trimethoxyphenyl)-2-isopropylvaleronitrile hydrochloride]: the Ki worked out at 7.5 nM at calcium channel and 6.8 nM on serotonin-S2-receptor.
For `CCCCCCCCN(C)CCCC(C#N)(c1cc(OC)c(OC)c(OC)c1)C(C)C` (stereo not drawn) [Example 4, 5-[N-methyl-N-(n-octyl)]-amino-2-(3,4,5-trimethoxyphenyl)-2-isopropylvaleronitrile] the same measures were 5.2 nM and 26.4 nM.

For the origin of these results see patent publication US4940780A, “Basically substituted phenylacetonitriles, their preparation and drugs containing these compounds” (BASF Aktiengesellschaft, priority 1986, dated 1990).
